From paper PMC6384991, “5-Arylideneimidazolones with Amine at Position 3 as Potential Antibiotic Adjuvants against Multidrug Resistant Bacteria” (Molecules, 2019)
“And” between values parts separate entries of the source, which are not always exact repeats. Equal entries are not always repeated. Where two headings read alike, the source gives them in different places.

How the values were obtained:
[1] = tested on: Salmonella typhimurium TA100; assay type: cell-based; conditions: for Mean of Revertants: 72 h; for Fold Increase Over Baseline: mutagenic if ≥ 2; for Binomial B-Value: ≤ 0.01 may be cytotoxic effect
Description: The mutagenicity was evaluated using Ames microplate fluctuation protocol (MPF) performed with Salmonella typhimurium TA100 strain, which is able to detect base pair substitutions. Calculation of medium control baseline (MCB) was performed basing on mean number of revertants in standard medium control in addition with one standard deviation. According to the manufacturer’s protocol, the mutagen alert is determined as 2-fold of medium control baseline (2 x MCB), which in this study was calculated as 24 revertants.
Ames microplate fluctuation protocol (MPF) assay was obtained from Xenometrix AG (Allschwil, Switzerland). The occurrence of mutagen-induced or spontaneous reversion events to histidine prototrophy was determined as a growth of S. typhimurium TA100 in the indicator medium without histidine after 72 h incubation at 37 °C temperature. NQNO (0.5 µM) was used as a positive control. Compound 9 was tested in triplicate at the final concentrations 1 and 10 µM. The revertants’ growth induced the colour change of medium which was analysed next colourimetrically with a microplate reader (EnSpire, PerkinElmer, Waltham, MA, USA) at 420 nm.

[2] = tested on: AcrAB-TolC efflux pump in E. aerogenes Ea-289; experiment: Real-time efflux (RTE) assay with 1,2'-dNA; conditions: compound 100 µM; Ea-289 strain
S. aureus ATCC 25923 [3] = experiment: Intrinsic antibacterial activity (MIC, microdilution) against reference S. aureus strain; assay type: cell-based; conditions: S. aureus ATCC 25923, compound alone, MH II broth
Description: (§1) Initially, 12 arylideneimidazolone derivatives were evaluated in vitro for their intrinsic antibacterial effect against two strains of S. aureus: the reference strain S. aureus ATCC 25923 and extremely-drug resistant (XDR) MRSA HEMSA 5 clinical isolate. This step of the study was necessary for: (i) elucidation whether molecules tested are devoid of antistaphylococcal activity and thus cannot become antimicrobial agents by themselves; and (ii) determination of the concentrations of compounds suitable for the further assay on their antibiotic adjuvant potency. In addition, the antistaphylococcal efficacy of oxacillin, which was paired with compounds tested, in the following assays was also assessed (Table 3).

[4] = tested on: E. aerogenes Ea-294, Ea-298; experiment: MIC (microdilution) against E. aerogenes strains devoid of AcrAB / TolC
E. aerogenes CM-64 = experiment: MIC (microdilution) against E. aerogenes CM-64 overexpressing AcrAB-TolC
[5] = PAMPA membrane permeability (Pre-coated PAMPA Plate System Gentest); assay type: in vitro ADME; conditions: 200 µM in PBS pH 7.4, room temperature, read-out: Pe ± SD
MRSA HEMSA 5 [6] = experiment: Intrinsic antibacterial activity (MIC, microdilution) against MRSA HEMSA 5; assay type: cell-based, S. aureus
Description: as §1

HepG2 cells = experiment: Hepatotoxicity, MTS viability assay; assay type: cell-based; conditions: 72 h
Description: Determination of potential hepatotoxicity was performed with hepatoma HepG2 cells by standard colorimetric MTS procedure. Compound 9 was diluted into the cell culture media in the following concentrations: 0.1, 1, 10 and 100 μM, added to the cells and incubated for 72 h at 37 °C in the presence of 5% CO2. The cytostatic drug doxorubicin (DX) was used at 1 µM, as the reference. […] However, in comparison to the result obtained for the reference DX the hepatotoxicity potential of tested compound is moderate, as its decreased cells’ viability to ~74% of control at 10 µM, whereas DX to ~15% of control at 1 µM (Figure 10).
The HepG2 cells were seeded in 96-well plates at a concentration of 1 × 10^4 cells/well and incubated for 24 h at 37 °C in 5% CO2 atmosphere to reach 50% of confluence. Compound 9 was diluted into fresh growth medium and added to the cells at the final concentrations 0.1 μM–100 μM. The positive controls DX and CCCP were added at 1 μM and 10 μM, respectively, and the cells were incubated for 72 h. The MTS reagent (CellTiter 96® AQueous One Solution Cell Proliferation Assay, Promega, Madison, WI, USA) was added next to the each well and incubated for 4 h. The absorbance was measured next using a microplate reader (EnSpire, PerkinElmer, Waltham, MA USA) at 490 nm to determine cells’ viability.

E. aerogenes Ea-289 = experiment: MIC (microdilution) against E. aerogenes Ea-289 overexpressing AcrAB-TolC, porin-deficient
S. aureus ATCC 25923 [7] = experiment: MIC reduction assay: influence on oxacillin susceptibility in reference strain; assay type: cell-based
MRSA HEMSA 5 [8] = experiment: MIC reduction assay: influence on oxacillin susceptibility in MRSA; assay type: cell-based, S. aureus
Description: The lack of a direct antibacterial activity of arylideneimidazolone derivatives tested allowed analyzing their anti-resistance potency in combination with the β-lactam antibiotic, oxacillin. […] The potential of compounds to become antibiotic adjuvants was evaluated by comparing the drug effectiveness in the presence and absence of compounds tested, thereby, by determining activity gain parameter A (Table 5). […] Slightly lower adjuvant-like activity was determined for the imidazolone derivatives 7 and 10 (A = 8–16). The efficacy of the remaining compounds was slightly less marked, however, also significant. Although compounds tested improved noticeably the antibacterial activity of oxacillin against MRSA clinical isolate, none of them restored the activity of the antibiotic (MIC < 2 µg/mL) against this highly resistant strain.

Question: For `CN1CCN(CCCN2C(=O)/C(=C/c3ccc4ccccc4c3)N=C2N)CC1.Cl` [Compound 9, (Z)-2-Amino-3-(3-(4-methylpiperazin-1-yl)propyl)-5-(naphthalen-2-ylmethylene)-3H-imidazol-4(5H)-one hydrochloride], which “Mean of Revertants” value ([1]; 1 µM) is on record?
Answer: 9.33

Question: What about the “Fold Increase Over Baseline” value ([1]; 1 µM) of the same compound?
Answer: 0.78

Question: What about the “Binomial B-Value” ([1]; 1 µM) of the same compound?
Answer: 0.6331

Question: What about the “Mean of Revertants” value ([1]; 10 µM) of the same compound?
Answer: 5.33

Question: What about the “Fold Increase Over Baseline” value ([1]; 10 µM) of the same compound?
Answer: 0.44

Question: And the “Binomial B-Value” ([1]; 10 µM)?
Answer: 0.0093

Question: What about the maximum revertants occurred ([1]; 1 and 10 µM, mutagen alert 24 revertants) of the same compound?
Answer: ≤ 11 revertants

Question: What about the “Inhibitory efficiency (IE) of 1,2'-dNA efflux” value [2] of the same compound?
Answer: 80%

Question: And the MIC (S. aureus ATCC 25923 [3]; Staphylococcus aureus, ATCC25923, read-out: MIC Value)?
Answer: 500 µM

Question: And the MIC ([4]; Klebsiella aerogenes)?
Answer: 1000 µM

Question: And the MIC (E. aerogenes CM-64; Klebsiella aerogenes, CM64)?
Answer: > 2000 µM

Question: What about the Papp at 5 h, 200 µM [5] of the same compound?
Answer: 0.72 ± 0.27 ×10⁻⁶ cm/s

Question: What about the MIC (MRSA HEMSA 5 [6]; Staphylococcus aureus, MRSA HEMSA 5, compound alone, MH II broth, read-out: MIC Value) of the same compound?
Answer: 500 µM

Question: And the “HepG2 cells' viability” value (HepG2 cells; 10 µM, MTS)?
Answer: ~ 74 % of control

Question: What about the “effect on HepG2 cells viability” value (HepG2 cells; 10 and 100 µM, p < 0.001 vs control) of the same compound?
Answer: statistically significant decrease

Question: And the MIC (E. aerogenes Ea-289; Klebsiella aerogenes, EA289)?
Answer: > 2000 µM

Question: And the melting point?
Answer: 215 to 217 °C

Question: With “(Z)-5-((9H-Fluoren-2-yl)methylene)-2-amino-3-(2-(4-methylpiperazin-1-yl)ethyl)-3H-imidazol-4(5H)-one hydrochloride [Compound 13]” as the compound, how does the “MIC Value” (S. aureus ATCC 25923 [3]) read?
Answer: 0.0625 to 0.125 mM

Question: And the MIC ([4]; Ea-294, Ea-298)?
Answer: 250 µM

Question: What about the MIC (E. aerogenes CM-64; CM-64) of the same compound?
Answer: 500 µM

Question: What about the “Activity Gain [A]” value (S. aureus ATCC 25923 [7]) of the same compound?
Answer: 1

Question: What about the “Range of Reduction (oxacillin MIC)” value (S. aureus ATCC 25923 [7]) of the same compound?
Answer: no effect

Question: And the “MIC Value” (MRSA HEMSA 5 [6]; MRSA HEMSA 5, compound alone, MH II broth)?
Answer: 0.125 mM

Question: What about the MIC (MRSA HEMSA 5 [6]; text summary for both strains: ATCC 25923 and MRSA HEMSA 5) of the same compound?
Answer: 0.0625–0.125 mM and 28.25–56.5 µg/mL

Question: What about the MIC (E. aerogenes Ea-289; Ea-289) of the same compound?
Answer: 500 µM

Question: And the “Activity Gain [A]” value (MRSA HEMSA 5 [8])?
Answer: 4–8

Question: And the “Range of Reduction (oxacillin MIC)” value (MRSA HEMSA 5 [8])?
Answer: from 512 to 64-128
